Patent EP0388528B1, “Carboximidamide derivatives” (KIRIN BEER KABUSHIKI KAISHA, priority 1988, dated 1990)

How the values were obtained:
[1] = test system: isolated rat aortae; test: Vasorelaxing effect on the isolated rat aortae (Referential Example 1)-1); conditions: inhibition of contraction induced by 40 mM KCl
Procedure: (§1) The compounds of the present invention were tested for their physiological activities by measuring the tension of isolated rat aortae isometrically.
Thoracic aortae obtained from male Wistar rats (weighing 250-350 g) were cut into ring segments about 3 mm long. The ring preparation was placed in an organ bath filled with 10 ml of Krebs-Ringer solution that was maintained at 37°C and gassed with 95% O₂ - 5% CO₂.
The preparation in the organ bath was allowed to equilibrate under resting tension of 1 g. After equilibration period, the solution in the organ bath was replaced with an isotonic solution containing 40 mM KCl to contract the preparation.
(§2) After the contraction induced by KCl had reached plateau, the concentration-response relationship for the test compound was determined by means of cumulative addition.
(§3) The relaxation response of the test compounds was expressed as the percent inhibition of the contraction induced by KCl, and the IC₅₀ value, which is a concentration required for inhibiting the contraction induced by KCl to an extent of 50%, was calculated by the Probit method from the concentration-response curve.

[2] = test system: spontaneous hypertensive rats (SHR); test: Hypotensive effect on spontaneous hypertensive rats (intravenously) (Referential Example 1)-3); format: in vivo; conditions: Rattus norvegicus, iv, anesthetized SHR, dose descending mean blood pressure by 20%; read-out: ED₂₀ (mg/kg, i.v.)
Procedure: (§4) Rats were anesthetized with urethane-α-chloralose (1 g/kg - 25 mg/kg; intraperitoneally). Mean blood pressure was measured by a pressure transducer through a cannula inserted into the carotid artery. The compound was cumulatively administered every 30 minutes through the cannula inserted into the jagular vein. The change in blood pressure was expressed as percent of the blood pressure before the administration of the compound. And the ED₂₀ value, which was the dose required for descending blood pressure to an extent of 20%, was calculated from the dose-response curve.

[3] = test system: isolated rat aortae; test: Vasorelaxing effect on the isolated rat aortae (Referential Example 2)-1); conditions: inhibition of contraction induced by 40 mM KCl, read-out: IC₅₀ Value
Procedure: as §1
Thoracic aortae obtained from male Wistar rats (weighing 250-350 g) were cut into ring segments about 3 mm long. The ring preparation was placed in an organ bath filled with 10 ml of Krebs-Ringer solution which was maintained at 37°C and gassed with 95% O₂ - 5% CO₂.
The preparation in the organ bath was allowed to equilibrate under resting tension 1 g. After equilibration period, the solution in the organ bath was replaced with an isotonic solution containing 40 mM KCl to contract the preparation.
as §2, §3

[4] = test system: spontaneous hypertensive rats (SHR); test: Hypotensive effect on spontaneous hypertensive rats (intravenously) (Referential Example 2)-2); format: in vivo; conditions: Rattus norvegicus, iv, anesthetized SHR, dose decreasing mean blood pressure by 20%; read-out: ED₂₀ (mg/kg, i.v.)
Procedure: as §4, with “decreasing” for “descending”

[5] = test system: potassium channel; test: Potassium channel activating effect (86Rb efflux from rat thoracic aorta); conditions: compound 10⁻⁴ M for 8 minutes, percent of the efflux before application
Procedure: Male Wistar rats (weighing 250-350 g) were dehematized to death, and thoracic aortae were rapidly isolated. The aorta was opened along the longitudinal axis to prepare a flat sheet. The preparation was loaded with ⁸⁶Rb in the Krebs-Ringer solution which contained ⁸⁶Rb in the concentration of 10 µCi/ml and was gassed with 95% O₂ - 5% CO₂ at 37°C for 2 hours. The preparation was then transferred to a Krebs-Ringer solution not containing ⁸⁶Rb, and washed to remove excess radioactivity for 18 minutes by refreshing the solution every 2 minutes. Finally the preparation was placed into a Krebs-Ringer solution containing each compound (10⁻⁴ M) for 8 minutes.
The amount of ⁸⁶Rb efflux from the preparation in each period was determined with a γ-counter.
The increment in efflux rate during the application of the compound was expressed as percent of the efflux before the application of the compound.

[6] = test system: isolated rat heart; test: Effect on isolated rat heart (Langendorff's method); conditions: 1 × 10⁻⁸ mol/min, mean ± S.D.
Procedure: The effect of the compound of the present invention on heart of rats was examined by using the Langendorff's method [test compound: N-cyano-N′-(2-nitroxyethyl)-3-pyridinecarboximidamide (compound (13))]. Hearts were excised from male rats (weighing 250-350 g) and perfused at 80 cmH₂O in a Langendorff fashion. Krebs-Hensaleit bicarbonate solution (pH 7.4, 37°C) containing an 11 mM glucose which was oxygenated with 95% O₂- 5% CO₂ gas mixture was used as a perfusate. The left ventricular pressure was recorded by inserting a latex baloon into the left ventricle, and heart rate was determined from the pulse of it. Coronary perfusate flow was also measured with an electromagnetic flowmeter. The experiments were carried out by perfusing a perfusate containing the compound (13) for 10 minutes after an initial equilibration period for 30 minutes. As the control compound, nicorandil which has an effect opening potassium channel and is similar to the test compound in structure was used. The changes in the coronary perfusate flow and the cardiac function (heart rate × left ventricular pressure) caused by these compounds were expressed as percent changes from the preperfusion values of the compound (13) or nicorandil.

[7] = test system: beagles; test: Hemodynamic profile in beagles (intravenously); format: in vivo; conditions: peak percent change from pretreatment
Procedure: Hemodynamic profile of the compound of the present invention was investigated in beagles anesthetized with pentobarbital (30 mg/kg, intravenously) [test compound: N-cyano-N′-(2-nitroxyethyl)-3-pyridinecarboximidamide (compound (13))]. The thorax was opened under artificial respiration. After administering heparin in an amount of 500 units/kg, a Moravitz's cannula was introduced into the coronary sinus via the right atrium. The coronary sinus outflow was returned to the right external jagular vein. The coronary sinus outflow was measured by an electromagnetic flowmeter (MFU-2100, manufactured by Nihon Kohden) connected to the Moravitz's cannula. A cannula was inserted into the aortic arch through the subclavian artery to measure aortic blood pressure. The aortic blood pressure was measured with a pressure transducer (Nihon Kohden, TP-200T). Heart rate was monitored with a heart rate counter with R waves of electrocardiogram. All parameters were recorded on a thermosensitive recorder (WT-685G, manufactured by Nihon Kohden).
The compound was administered through the cannula inserted into the right femoral vein. Nicorandil was used as a control. As for respective measurement items, peak changes were expressed as percent change from the pretreatment values of the compound (13) or nicorandil.

[8] = test system: isolated heart of rats; test: Myocardiac injury induced by re-perfusion after ischemia (isolated heart of rats); conditions: 1×10⁻⁶ mole/min, after 30 minutes re-perfusion, mean ± SD
Procedure: The cardiac muscle protecting effect of the compound of the present invention was tested by using the isolated heart of rats [test compound: N-cyano-N′-(2-nitroxyethyl)-3-pyridinecarboximidamide (compound (13))]. The Langendorff's method was used in the same manner as in the aforementioned Referential Example 1)-6. The isolated heart was perfused with a perfusate for 30 minutes and then with a perfusate containing the test compound for 10 minutes, and perfusion was stopped so that the heart was in the so-called "ischemic state". Pacing was performed during the ischemia. […] Parameters of cardiac function after the onset of re-perfusion was monitored for 30 minutes, and the heart was quickly freezed. The amount of ATP in the heart muscle was extracted with perchloric acid and determined by HPLC. Nicorandil was used as a control.
The recovery rate of the cardiac function (heart rate × left ventricular pressure) after onset of reperfusion was calculated based on the cardiac function prior to the perfusion of the compound (13) and nicorandil as 100%. The amount of ATP in the heart muscle was also determined.

IC50 [1] [µM]	IC50 [3] [µM]	SMILES	ED20 [2] [mg/kg]	further results
38	–	N#CNC(=NCCc1ccccc1Cl)c1cccnc1 [(29), N-cyano-N'-[2-(2-chlorophenyl)ethyl]-3-pyridinecarboximidamide]	0.013	–
40	–	N#CNC(=NCCc1ccccc1)c1cccnc1 [(27), N-cyano-N'-(2-phenylethyl)-3-pyridinecarboximidamide]	0.074	Increment of Efflux (%) [5]: 206.61%
66	–	N#CNC(=NCc1ccccc1)c1cccnc1 [(17), N-cyano-N'-benzyl-3-pyridinecarboximidamide]	0.25	Increment of Efflux (%) [5]: 135.41%
–	19	N#CNC(=NCCc1ccccc1)c1cccs1 [(67), N-cyano-N′-(2-phenylethyl)-2-thiophenecarboximidamide]	–	–
–	40	N#CNC(=NCCc1ccccc1)c1ccc(C#N)cc1 [(69), N-cyano-N′-(2-phenylethyl)-4-cyanobenzenecarboximidamide]	–	–
–	6.1	N#CNC(=NCCc1ccccc1)c1cnc2ccccc2c1 [(60), N-cyano-N′-(2-phenylethyl)-3-quinolinecarboximidamide]	–	–
–	94	N#CNC(=NCCc1ccccc1)c1ccoc1 [(65), N-cyano-N′-(2-phenylethyl)-3-furancarboximidamide]	–	–
–	18	N#CNC(=NCCc1ccccc1)c1ccco1 [(63), N-cyano-N′-(2-phenylethyl)-2-furancarboximidamide]	–	–

Second part, the compound before the results:

SMILES	IC50 [1] [µM]	IC50 [3] [µM]	ED20 [2] [mg/kg]	further results
N#CNC(=NCCO[N+](=O)[O-])c1cccs1 [(66), N-cyano-N′-(2-nitroxyethyl)-2-thiophenecarboximidamide]	–	9.6	–	ED20 [4]: 0.115 mg/kg
N#CNC(=NCCO[N+](=O)[O-])c1ccco1 [(62), N-cyano-N′-(2-nitroxyethyl)-2-furancarboximidamide]	–	26	–	ED20 [4]: 0.025 mg/kg
N#CNC(=NCCO[N+](=O)[O-])c1ccncc1 [(41), N-cyano-N'-(2-nitroxyethyl)-4-pyridinecarboximidamide]	12	–	0.13	Increment of Efflux (%) [5]: 126.88%
O=C(NCCO[N+](=O)[O-])c1cccnc1 [Nicorandil, nicorandil, reference compound]	–	–	–	Coronary Perfusate Flow (% change) ([6]; perfusion 10 minutes): 3.3±5.6 % change; Cardiac Function ([6]; heart rate × left ventricular pressure, percent change from preperfusion): 3.7±6.7%; Coronary Blood Flow ([7]; i.v. 100.0 µg/kg): 20.3±5.1%; Heart Rate ([7]; i.v. 100.0 µg/kg): 0.2±2.1%; Mean Aortic Blood Pressure ([7]; i.v. 100.0 µg/kg): -21.3±1.9%; Coronary Blood Flow ([7]; i.v. 300.0 µg/kg): 84.9±10.8%; Heart Rate ([7]; i.v. 300.0 µg/kg): -20.7±1.9%; Mean Aortic Blood Pressure ([7]; i.v. 300.0 µg/kg): -43.1±5.4%; Amount of ATP in the heart muscle (µmole/g of dry weight) [8]: 5.93±0.49 (4) µmole/g of dry weight
N#CNC(=NCCO[N+](=O)[O-])c1cnc2ccccc2c1 [Compound (59), N-cyano-N′-(2-nitroxyethyl)-3-quinolinecarboximidamide]	–	24	–	–
N#CNC(=NCCO[N+](=O)[O-])c1ccccn1 [Compound (1), N-cyano-N'-(2-nitroxyethyl)-2-pyridinecarboximidamide]	4.6	–	0.037	–
N#CNC(=NCCO[N+](=O)[O-])c1cnccn1 [(61), N-cyano-N′-(2-nitroxyethyl)pyrazinecarboximidamide]	–	53	–	–
